Patent publication US4588822A, “Physiologically active substances SS 12538, their preparation and a novel microorganism producing same” (SS Pharmaceutical Co., Ltd., priority 1982, dated 1986)
≈ marks a conversion by molar mass, not a printed value. Where two headings read alike, the source gives them in different places. Values belong to the compound of their own block, whether it stands above or below them.

Experiments:
mongrel dogs = assay: Vasodilating activity in anesthetized mongrel dogs (coronary blood flow, blood pressure, heart rate after dosing into the vein); type: in vivo, dog (mongrel); conditions: for Blood Pressure Duration / Blood Pressure Reduction / Coronary Blood Flow Duration / Coronary Blood Flow Increase / Heart Rate Reduction: i.v., dog; for titer relative to dipyridamol: compared with currently employed dipyridamol
Experimental: 4 male mongrel dogs, weighing 15-25 Kg, were provided as laboratory animals and were anesthesized with sodium pentobarbital (30 mg/kg i.v.). Thereafter, the left circumflex coronary artery was exposed under artificial respiration and a probe of an electromagnetic flow meter was attached. A polyethylene cannula was inserted into the left femoral artery.
Test compounds were dissolved in a small amount of dimethyl sulfoxide and diluted with a sterilized physiological saline for injection, followed by dosing it into the vein.
Coronary blood was measured by means of the electromagnetic flow meter and the blood pressure was determined from the polyethylene cannule through a pressure transducer. Also, heart rate was measured by an instantaneous pulse meter from RR intervals of an electrocardiogram. Each parameter was recorded on a polygraph. Changes of these parameters prior to and after administration of each compound were observed.
In accordance with the procedure as used with SS 12538A, the vasodilating activity of SS 12538B was determined.
In the same manner as in the case of SS 12538A, the vasodilating activity of SS 12538C was determined with the results shown in Table 5.

Escherichia coli 0-1 = assay: Antibacterial activity (MIC), Escherichia coli 0-1; type: cell-based
From the text: (§1) Minimum inhibitory concentration (MIC) of the physiologically active substance SS 12538A against various microorganisms are shown in FIG. 2.
(§2) Minimum inhibitory concentration (MIC) of the physiologically active substance SS 12538B against various microorganisms are shown in Table 4 below.
(§3) Minimum inhibitory concentration (MIC) of the physiologically active substance SS 12538C against various microorganisms are shown in Table 6 below.

[1] = tested on: Bacillus subtilis ATCC 6633; assay: Antibacterial activity (MIC), Bacillus subtilis ATCC 6633; type: cell-based
From the text: as §1, §2, §3

Solubilities in solvents = type: physicochemical; conditions: for Solubility in organic solvents: chloroform, ethyl acetate, acetone, ethyl ether, ethanol, methanol, pyridine, benzene and dimethyl sulfoxide
[2] = tested on: Saccharomyces cerevisiae ATCC 9763; assay: Antifungal activity (MIC), Saccharomyces cerevisiae ATCC 9763; type: cell-based
From the text: as §1, §2, §3

[3] = tested on: Staphylococcus epidermidis ATCC 12228; assay: Antibacterial activity (MIC), Staphylococcus epidermidis ATCC 12228; type: cell-based
From the text: as §1, §2, §3

[4] = tested on: Aspergillus niger ATCC 9642; assay: Antifungal activity (MIC), Aspergillus niger ATCC 9642; type: cell-based
From the text: as §1, §2, §3

Bacillus cereus IID 871 = assay: Antibacterial activity (MIC), Bacillus cereus IID 871; type: cell-based
From the text: as §1, §2, §3

[5] = tested on: Staphylococcus aureus ATCC 6538P; assay: Antibacterial activity (MIC), Staphylococcus aureus ATCC 6538P; type: cell-based; conditions: ATCC6538P, read-out: Minimum Inhibitory Concentration MIC
From the text: as §1, §2, §3

[6] = tested on: Candida albicans ATCC 10231; assay: Antifungal activity (MIC), Candida albicans ATCC 10231; type: cell-based
From the text: as §1, §2, §3

[7] = tested on: Trichophyton mentagrophytes QM 248; assay: Antifungal activity (MIC), Trichophyton mentagrophytes QM 248; type: cell-based
From the text: as §1, §2, §3

[8] = tested on: Pseudomonas aeruginosa IFO 13736; assay: Antibacterial activity (MIC), Pseudomonas aeruginosa IFO 13736; type: cell-based
From the text: as §1, §2, §3

[9] = tested on: Klebsiella pneumoniae ATCC 10031; assay: Antibacterial activity (MIC), Klebsiella pneumoniae ATCC 10031; type: cell-based
From the text: as §1, §2, §3

[10] = tested on: Micrococcus lysodeikticus IFO 3333; assay: Antibacterial activity (MIC), Micrococcus lysodeikticus IFO 3333; type: cell-based; conditions: Micrococcus luteus
From the text: as §1, §2, §3

[11] = tested on: Microsporum gypseum IFO 8231; assay: Antifungal activity (MIC), Microsporum gypseum IFO 8231; type: cell-based; conditions: Nannizzia gypsea
From the text: as §1, §2, §3

[12] = 01, Escherichia coli 0-1, read-out: Minimum Inhibitory Concentration MIC
[13] = ATCC6633, Bacillus subtilis ATCC 6633, read-out: Minimum Inhibitory Concentration MIC
[14] = ATCC9763, Saccharomyces cerevisiae ATCC 9763, read-out: Minimum Inhibitory Concentration MIC
[15] = ATCC12228, Staphylococcus epidermidis ATCC 12228, read-out: Minimum Inhibitory Concentration MIC
[16] = ATCC9642, Aspergillus niger ATCC 9642, read-out: Minimum Inhibitory Concentration MIC
[17] = IID871, Bacillus cereus IID 871, read-out: Minimum Inhibitory Concentration MIC
[18] = Staphylococcus aureus ATCC 6538P
[19] = ATCC10231, Candida albicans ATCC 10231, read-out: Minimum Inhibitory Concentration MIC
[20] = QM248, Trichophyton mentagrophytes QM 248, read-out: Minimum Inhibitory Concentration MIC
[21] = IFO13736, Pseudomonas aeruginosa IFO 13736, read-out: Minimum Inhibitory Concentration MIC
[22] = ATCC10031, Klebsiella pneumoniae ATCC 10031, read-out: Minimum Inhibitory Concentration MIC
[23] = IFO3333, Micrococcus lysodeikticus IFO 3333, read-out: Minimum Inhibitory Concentration MIC
[24] = IFO8231, Microsporum gypseum IFO 8231, read-out: Minimum Inhibitory Concentration MIC

Compound: OCCN(CCO)c1nc(N2CCCCC2)c2nc(N(CCO)CCO)nc(N3CCCCC3)c2n1 [Dipyridamol, dipyridamol, reference compound]
- Blood Pressure Duration (mongrel dogs; dose 300 μg/kg): 16 min
- Blood Pressure Reduction (mongrel dogs; dose 300 μg/kg): 13.2%
- Coronary Blood Flow Duration (mongrel dogs; dose 300 μg/kg): 20 min
- Coronary Blood Flow Increase (mongrel dogs; dose 300 μg/kg): 135.7%
- Heart Rate Reduction (mongrel dogs; dose 300 μg/kg): 0%

- MIC (Escherichia coli 0-1; [12]): > 100 µg/mL
- MIC [1, 13]: > 100 µg/mL
- Solubility in organic solvents (Solubilities in solvents): Soluble
- Solubility in water (Solubilities in solvents): sparingly soluble
- MIC [2, 14]: > 100 µg/mL
- MIC [3, 15]: < 6.25 µg/mL
- MIC [4, 16]: > 100 µg/mL
- MIC (Bacillus cereus IID 871; [17]): 12.5 µg/mL (≈ 31.2 µM)
- MIC [5, 18]: > 100 µg/mL
- MIC [6, 19]: > 100 µg/mL
- MIC [7, 20]: > 100 µg/mL
- MIC [8, 21]: > 100 µg/mL
- MIC [9, 22]: > 100 µg/mL
- MIC [10, 23]: 25 µg/mL (≈ 62.4 µM)
- MIC [11, 24]: < 6.25 µg/mL
Compound: CC=C(C)C(O)C(C)C=C(C)C=CCC(C)=CCc1oc(OC)c(C)c(=O)c1C (stereo not drawn) [SS 12538A]
- titer relative to dipyridamol (mongrel dogs): about 30 times
- Blood Pressure Duration (mongrel dogs; dose 3 μg/kg): 7 min
- Blood Pressure Reduction (mongrel dogs; dose 3 μg/kg): 4.9%
- Coronary Blood Flow Duration (mongrel dogs; dose 3 μg/kg): 10 min
- Coronary Blood Flow Increase (mongrel dogs; dose 3 μg/kg): 17.1%
- Heart Rate Reduction (mongrel dogs; dose 3 μg/kg): 2.3%
- Blood Pressure Duration (mongrel dogs; dose 10 μg/kg): 10 min
- Blood Pressure Reduction (mongrel dogs; dose 10 μg/kg): 12.6%
- Coronary Blood Flow Duration (mongrel dogs; dose 10 μg/kg): 20 min
- Coronary Blood Flow Increase (mongrel dogs; dose 10 μg/kg): 168.6%
- Heart Rate Reduction (mongrel dogs; dose 10 μg/kg): 2.9%
- Blood Pressure Duration (mongrel dogs; dose 30 μg/kg): 30 min
- Blood Pressure Reduction (mongrel dogs; dose 30 μg/kg): 28.7%
- Coronary Blood Flow Duration (mongrel dogs; dose 30 μg/kg): 40 min
- Coronary Blood Flow Increase (mongrel dogs; dose 30 μg/kg): 441.3%
- Heart Rate Reduction (mongrel dogs; dose 30 μg/kg): 1.8%

- MIC (Escherichia coli 0-1; [12]): > 100 µg/mL
- MIC [1, 13]: 50 µg/mL (≈ 129 µM)
- Solubility in organic solvents (Solubilities in solvents): Soluble
- Solubility in water (Solubilities in solvents): sparingly soluble
- MIC [2, 14]: > 100 µg/mL
- MIC [3, 15]: 25 µg/mL (≈ 64.7 µM)
- MIC [4, 16]: > 100 µg/mL
- MIC (Bacillus cereus IID 871; [17]): 50 µg/mL (≈ 129 µM)
- MIC [5, 18]: 25 µg/mL (≈ 64.7 µM)
- MIC [6, 19]: > 100 µg/mL
- MIC [7, 20]: 25 µg/mL (≈ 64.7 µM)
- MIC [8, 21]: > 100 µg/mL
- MIC [9, 22]: > 100 µg/mL
- MIC [10, 23]: 25 µg/mL (≈ 64.7 µM)
- MIC [11, 24]: 100 µg/mL (≈ 259 µM)
Compound: CC=C(C)C(O)C(C)C=C(C)C=CCC(C)=CCc1oc(OC)cc(=O)c1C (stereo not drawn) [SS 12538B]
- titer relative to dipyridamol (mongrel dogs): about 30 times
- Blood Pressure Duration (mongrel dogs; dose 3 μg/kg): 6 min
- Blood Pressure Reduction (mongrel dogs; dose 3 μg/kg): 7.5%
- Coronary Blood Flow Duration (mongrel dogs; dose 3 μg/kg): 10 min
- Coronary Blood Flow Increase (mongrel dogs; dose 3 μg/kg): 103.3%
- Heart Rate Reduction (mongrel dogs; dose 3 μg/kg): 2.0%
- Blood Pressure Duration (mongrel dogs; dose 10 μg/kg): 20 min
- Blood Pressure Reduction (mongrel dogs; dose 10 μg/kg): 27.7%
- Coronary Blood Flow Duration (mongrel dogs; dose 10 μg/kg): 15 min
- Coronary Blood Flow Increase (mongrel dogs; dose 10 μg/kg): 143.8%
- Heart Rate Reduction (mongrel dogs; dose 10 μg/kg): 13.0%

Compound: CC=C(C)C(O)C(C)C=C(C)C=CCC(C)=CCc1oc(OC)c(CC)c(=O)c1C (stereo not drawn) [SS 12538C]
- MIC (Escherichia coli 0-1; Escherichia coli, 01, read-out: Minimum Inhibitory Concentration MIC): > 100 µg/mL
- MIC ([1]; Bacillus subtilis, ATCC6633, read-out: Minimum Inhibitory Concentration MIC): > 100 µg/mL
- Solubility in organic solvents (Solubilities in solvents): Soluble
- Solubility in water (Solubilities in solvents): sparingly soluble
- MIC ([2]; Saccharomyces cerevisiae, ATCC9763, read-out: Minimum Inhibitory Concentration MIC): > 100 µg/mL
- MIC ([3]; Staphylococcus epidermidis, ATCC12228, read-out: Minimum Inhibitory Concentration MIC): 25 µg/mL (≈ 60.3 µM)
- MIC ([4]; Aspergillus niger, ATCC9642, read-out: Minimum Inhibitory Concentration MIC): > 100 µg/mL
- MIC (Bacillus cereus IID 871; Bacillus cereus, IID871, read-out: Minimum Inhibitory Concentration MIC): 25 µg/mL (≈ 60.3 µM)
- MIC ([5]; Staphylococcus aureus): 100 µg/mL (≈ 241 µM)
- MIC ([6]; Candida albicans, ATCC10231, read-out: Minimum Inhibitory Concentration MIC): > 100 µg/mL
- titer relative to dipyridamol (mongrel dogs): about 3 times
- Blood Pressure Duration (mongrel dogs; dose 10 μg/kg): 0 min
- Blood Pressure Reduction (mongrel dogs; dose 10 μg/kg): 0%
- Coronary Blood Flow Duration (mongrel dogs; dose 10 μg/kg): 5 min
- Coronary Blood Flow Increase (mongrel dogs; dose 10 μg/kg): 30.0%
- Heart Rate Reduction (mongrel dogs; dose 10 μg/kg): 0%
- Blood Pressure Duration (mongrel dogs; dose 30 μg/kg): 10 min
- Blood Pressure Reduction (mongrel dogs; dose 30 μg/kg): 2.9%
- Coronary Blood Flow Duration (mongrel dogs; dose 30 μg/kg): 10 min
- Coronary Blood Flow Increase (mongrel dogs; dose 30 μg/kg): 60.0%
- Heart Rate Reduction (mongrel dogs; dose 30 μg/kg): 0%
- Blood Pressure Duration (mongrel dogs; dose 100 μg/kg): 15 min
- Blood Pressure Reduction (mongrel dogs; dose 100 μg/kg): 8.5%
- Coronary Blood Flow Duration (mongrel dogs; dose 100 μg/kg): 15 min
- Coronary Blood Flow Increase (mongrel dogs; dose 100 μg/kg): 130.0%
- Heart Rate Reduction (mongrel dogs; dose 100 μg/kg): 10.1%
- MIC ([7]; Trichophyton mentagrophytes, QM248, read-out: Minimum Inhibitory Concentration MIC): 50 µg/mL (≈ 121 µM)
- MIC ([8]; Pseudomonas aeruginosa, IFO13736, read-out: Minimum Inhibitory Concentration MIC): > 100 µg/mL
- MIC ([9]; Klebsiella pneumoniae, ATCC10031, read-out: Minimum Inhibitory Concentration MIC): > 100 µg/mL
- MIC ([10]; IFO3333, read-out: Minimum Inhibitory Concentration MIC): 12.5 µg/mL (≈ 30.2 µM)
- MIC ([11]; IFO8231, read-out: Minimum Inhibitory Concentration MIC): > 100 µg/mL
